Measurements reported in patent US20210179714A1, “Inhibition of CTLA-4 and/or PD-1 For Regulation of T Cells” (MEMORIAL SLOAN KETTERING CANCER CENTER, priority 2017, published 2021).

Assays:
4PD1^hi [1] = assay: 4PD1hi and Treg frequency/phenotype in tumor-bearing mice under treatment (FACS, immunofluorescence); type: in vivo, mouse
Method: (§1) B16 melanoma cells were implanted intradermally (10^5 cells, for tumor-growth and survival analyses) or subcutaneously in matrigel (Matrigel Matrix Growth Factor Reduced, Becton Dickinson) (2×10^5 cells, for immune-cell infiltrate analyses) in C57BL/6J mice. Vaccination with VRP-TRP2 (AlphaVax Inc.) was performed by injection of 1×10^6 virus-like replicon particles (VRPs) (Zappasodi and Merghoub, 2015) expressing mouse TRP2 into the plantar surface of each footpad for 3 times 1 week apart, starting 3 days after tumor implantation (Avogadri et al., 2014). Treatment with anti-CTLA-4 (clone 9D9, 100 μg or 300 μg/injection), anti-PD-1 (clone RMP1-14, 250 μg/injection), or the matched isotype IgGs (BioXcell) was started 3-4 (optimal treatment) or 6-7 days (suboptimal treatment) after tumor implantation for respectively 5 or 4 intraperitoneal (i.p.) administrations 3 days apart. Immunization with sRBC was performed i.p. with 200 μl 10% volume/volume sRBC solution (Innovative Research). The Bcl6 inhibitor 79.6 (Calbiochem) was administered daily i.p. in 10% DMSO at 50 mg/kg (Cerchietti et al., 2010). TUBO breast carcinoma cells were implanted subcutaneously in Balb/c mice (10^6 cells/mouse) and anti-CTLA-4 treatment was started 10 days after. Animals were monitored at least twice a week and were considered tumor-free until intradermal lesions were palpable.
(§2) Tumors were dissociated after 30 min incubation with Liberase TL and DNAse I (Roche) to obtain single-cell suspensions. When tumor mass exceeded 0.1 gr, immune-cell infiltrates were enriched by Percoll (GE Healthcare) gradient centrifugation. Cells from tumor-draining lymph nodes and spleens were prepared by mechanical dissociation on 40 μM filters and RBC lysis (ACK buffer, Lonza). Mouse PB was collected by retro-orbital puncture and RBC were lysed with Pharm Lyse Buffer (BD Bioscences). […]

B16 melanoma = assay: Tumor growth and tumor-free survival in tumor-bearing mice; type: in vivo, mouse
Method: as §1

4PD1^hi [2] = assay: FACS monitoring of circulating 4PD1hi in advanced NSCLC patients during immune checkpoint blockade; type: in vivo, human
Method: To evaluate the role of 4PD1^hi in the development of anti-tumor immune responses in vivo, we monitored this cell population in cancer patients treated with immune checkpoint blockade. To detect human PD-1, we employed a mAb whose binding is not cross-blocked by the therapeutic αPD-1 Abs nivolumab or pembrolizumab (FIG. 7A). […] We thus explored in mice the capability of αCTLA-4 monotherapy to increase 4PD1^hi in a dose-dependent manner, by treating with 100 μg (standard dose in mice) or a higher amount (300 μg) of αCTLA-4 (FIG. 8B). […] Furthermore, in different mouse strains (C57BL/6J and Balb/c) we observed that the presence of tumor contributes to anti-CTLA-4-mediated induction of 4PD1^hi.
(§3) All patients and healthy donors signed an approved informed consent before providing tissue samples. Patient samples were collected on a tissue-collection protocol approved by the MSKCC Institutional Review Board and processed as described (Holmgaard et al., 2015).
as §2, with “Lonza).” for “Lonza). Mouse PB was collected by retro-orbital puncture and RBC were lysed with Pharm Lyse Buffer (BD Bioscences).”

circulating B cells = assay: CD86 expression on circulating B cells of metastatic melanoma patients; type: in vivo, human; details: ipilimumab 3 mg/kg q3 wks, n=16
Method: as §3, §2

4PD1^hi [3] = assay: FACS monitoring of circulating 4PD1hi / CD4+ T-cell subsets in advanced melanoma patients during immune checkpoint blockade; type: in vivo, human; details: for circulating 4PD1hi frequency: metastatic melanoma patients, ipilimumab n=47, pembrolizumab n=52, relative to baseline
Source text: We further confirmed the results achieved in NSCLC patients in larger cohorts of metastatic melanoma patients treated with ipilimumab (FIG. 8C, αCTLA-4, n=47) or the αPD-1 pembrolizumab (FIG. 8C, n=52, 50/52 upon relapse on ipilimumab). αCTLA-4 increased circulating 4PD1^hi, while administration of αPD-1 reduced their frequency (FIG. 8C). We further substantiated the capability of αPD-1 (pembrolizumab) to down-regulate 4PD1hi in an independent cohort of melanoma patients (Huang et al., 2017) (FIG. 8F).
as §3
Tumors were dissociated after 30 min incubation with Liberase TL and DNAse I (Roche) to obtain single-cell suspensions. When tumor mass exceeded 0.1 gr, immune-cell infiltrates were enriched by Percoll (GE Healthcare) gradient centrifugation. Cells from tumor-draining lymph nodes and spleens were prepared by mechanical dissociation on 40 μM filters and RBC lysis (ACK buffer, Lonza). Mouse PB was collected by retro-orbital puncture and RBC were lysed with Pharm Lyse Buffer (BD Bioscences). Surface staining of mouse cells was performed after 15 min pre-incubation with anti-mouse CD16/CD32 Ab (clone 2.4G2; BD Biosciences) to block FcγR binding, with panels of appropriately diluted fluorochrome-conjugated Abs (from BD Biosciences, eBioscience or Invitrogen) against the following mouse proteins in different combinations: CD45 (clone 30-F11), CD45.1 (clone A20), CD4 (clone RM4-5), CD8a (clone 5H10), Thy1.1 (clone OX-7), B220 (RA3-6B2), CD19 (clone 1D3), PD-1 (RMP1-30), CD44 (clone IM7), CD62L (clone MEL-14), CD25 (clone PC61.5), CD86 (clone GL-1), I-A/I-E (clone M5/114.15.2), PD-L1 (clone MIH5), ICOS (clone C398.4A), CXCR5 (biotin-conjugated clone 2G8, followed by PE-/APC-labeled streptavidin staining), and a eFluor506 fixable viability dye. For intracellular staining, mouse cells were fixed and permeabilized (Foxp3 fixation/permeabilization buffer, eBioscience) and incubated with appropriately diluted PECF594-labeled anti-Bcl6 (clone K112-91, BD Biosciences), PECy7-labeled anti-Ki67 (clone B56, BD Biosciences), and FITC-labeled anti-Foxp3 (clone FJK-16s, eBioscience) Abs. Surface staining of human cells was performed in the presence of FcγR Blocking reagent (Miltenyi Biotec) with proper dilutions of fluorochrome-conjugated Abs (from BD Biosciences, eBioscience or Tonbo) against the following human proteins in different combinations: CD45 (clone HI30), CD45RA (clone HI100), CD4 (clone RPA-T4), PD-1 (clone MIH4 or J105 in anti-PD-1-treatment naïve samples), CD25 (clone MA251), ICOS (clone ISA-3), CXCR5 (clone RF8B2), CD19 (clone HIB19), and CD86 (clone FUN-1), and a eFluor506 fixable viability dye. For intracellular staining, human cells were fixed and permeabilized (Foxp3 fixation/permeabilization buffer, eBioscience) and then incubated with appropriately diluted eFuor450-labeled anti-Foxp3 (clone PCH101, eBiosciences), PECF594-labeled anti-Bcl6 (clone K112-91), and APC-labeled anti-CTLA-4 (clone BNI3, BD Biosciences) Abs.

## O=C(O)CC(C(=O)O)n1c(O)c(C2=c3cc(Br)ccc3=NC2=O)sc1=S (stereo not shown) [Bcl6 inhibitor]
4PD1^hi [1]; Bcl6 inhibition
  intra-tumor Tregs: favored intra-tumor Treg expansion
  total CD4+ or CD8+ T-cell intra-tumor infiltration: did not find significant increases
4PD1^hi [1]; Bcl6 inhibitor 50 mg/kg daily i.p.
  4PD1hi in the periphery and at the tumor site: effective in controlling
B16 melanoma; RAG KO mice lacking mature T and B cells, Bcl6 inhibition
  anti-tumor activity in RAG KO mice: completely lost
B16 melanoma; WT mice, Bcl6 inhibitor, also in the context of CTLA-4 blockade and high baseline 4PD1hi
  tumor growth: modestly (but significantly) delayed tumor growth

## ipilimumab
4PD1^hi [2]; NSCLC patients, ipilimumab 1 or 3 mg/kg added to nivolumab 1 mg/kg, compared with nivolumab monotherapy
  circulating 4PD1hi: proportional increases
Circulating B cells
  CD86 on circulating B cells: up-regulation
4PD1^hi [3]; melanoma cohort, 4PD1neg, Tregs and 4PD1hi
  ICOS expression in CD4+ T cell subsets: induced ICOS expression
4PD1^hi [3]
  circulating 4PD1hi frequency: increased

## nivolumab
4PD1^hi [2]; metastatic NSCLC patients, nivolumab monotherapy (nivo3, 3 mg/kg q2 wks, n=10), relative to baseline
  peripheral 4PD1hi frequency: reduced

## pembrolizumab
4PD1^hi [3]; independent cohort of melanoma patients, pembrolizumab 2 mg/kg q3 wks, n=18
  4PD1hi frequency, independent cohort: down-regulate
4PD1^hi [3]; melanoma patients, higher dose of pembrolizumab (2 mg/kg or 10 mg/kg)
  dose dependence of 4PD1hi down-regulation: more efficient at down-regulating
4PD1^hi [3]
  circulating 4PD1hi frequency: reduced
